The text below walks through data of paper PMC5773950 (British Journal of Pharmacology, 2018).

For series [1] the following is noted: in vivo.
A further series addresses 5‐HT2A receptor (Homo sapiens, UniProt P28223). Nature of the series: biochemical. Format: binding.
A further series concerns the target human NET (Homo sapiens, UniProt P23975). Nature of the series: cell-based. The series is classed as cell-based.
For the next series, the target named is T1, 5‐HT1A receptor (Homo sapiens, UniProt P08908).
T1 sequence (P08908 1-422): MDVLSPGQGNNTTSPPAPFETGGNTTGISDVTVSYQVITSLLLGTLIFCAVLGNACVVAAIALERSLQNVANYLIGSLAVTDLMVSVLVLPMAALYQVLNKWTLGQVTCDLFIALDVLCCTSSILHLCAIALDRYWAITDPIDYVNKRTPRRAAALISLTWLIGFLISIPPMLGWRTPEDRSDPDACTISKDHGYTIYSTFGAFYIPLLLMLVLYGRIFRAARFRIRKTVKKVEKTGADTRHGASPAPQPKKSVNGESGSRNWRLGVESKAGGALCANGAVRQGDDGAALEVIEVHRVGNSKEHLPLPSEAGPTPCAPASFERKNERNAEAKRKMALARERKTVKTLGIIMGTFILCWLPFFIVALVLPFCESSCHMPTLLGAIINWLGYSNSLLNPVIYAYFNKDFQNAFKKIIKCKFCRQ
Nature of the series: biochemical. Format: binding.

A further series addresses human DAT (Homo sapiens, UniProt Q01959). Put plainly: cell-based.
The next series has as its target human SERT (Homo sapiens, UniProt P31645). Nature of the series: cell-based.
For series [2] the following is noted: human.
The conditions of series [3]: human. The source holds these as a separate data set.
A further series addresses T2, 5‐HT2C receptor (Homo sapiens, UniProt P28335).
T2 sequence (P28335 33-458): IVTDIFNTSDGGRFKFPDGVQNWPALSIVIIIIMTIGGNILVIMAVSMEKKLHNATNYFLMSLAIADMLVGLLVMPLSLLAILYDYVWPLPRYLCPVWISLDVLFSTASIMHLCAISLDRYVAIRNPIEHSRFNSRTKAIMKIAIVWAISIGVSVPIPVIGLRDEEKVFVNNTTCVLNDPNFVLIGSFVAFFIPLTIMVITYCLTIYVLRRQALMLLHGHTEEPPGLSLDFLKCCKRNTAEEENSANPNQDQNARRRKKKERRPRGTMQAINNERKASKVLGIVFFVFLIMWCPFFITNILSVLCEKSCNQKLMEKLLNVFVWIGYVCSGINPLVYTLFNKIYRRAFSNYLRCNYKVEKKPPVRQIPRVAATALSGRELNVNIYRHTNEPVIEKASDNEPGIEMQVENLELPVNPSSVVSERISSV
Put plainly: biochemical. Format: binding.

For series [4] the following is noted: human, in vivo.
The conditions of series [5]: in vivo; cited from earlier work.
Where [6] appears, read: read-out: 5‐HT2A Receptor binding Ki ± SD.
Where [7] appears, read: read-out: 5‐HT1A Receptor binding Ki ± SD.
The mark [8] stands for this setting: read-out: 5‐HT2C Receptor binding Ki ± SD.

Where two headings read alike, the source gives them in different places. Marks after values point to notes of the source that are not given here.

Chain of human NET (P23975 whole entry): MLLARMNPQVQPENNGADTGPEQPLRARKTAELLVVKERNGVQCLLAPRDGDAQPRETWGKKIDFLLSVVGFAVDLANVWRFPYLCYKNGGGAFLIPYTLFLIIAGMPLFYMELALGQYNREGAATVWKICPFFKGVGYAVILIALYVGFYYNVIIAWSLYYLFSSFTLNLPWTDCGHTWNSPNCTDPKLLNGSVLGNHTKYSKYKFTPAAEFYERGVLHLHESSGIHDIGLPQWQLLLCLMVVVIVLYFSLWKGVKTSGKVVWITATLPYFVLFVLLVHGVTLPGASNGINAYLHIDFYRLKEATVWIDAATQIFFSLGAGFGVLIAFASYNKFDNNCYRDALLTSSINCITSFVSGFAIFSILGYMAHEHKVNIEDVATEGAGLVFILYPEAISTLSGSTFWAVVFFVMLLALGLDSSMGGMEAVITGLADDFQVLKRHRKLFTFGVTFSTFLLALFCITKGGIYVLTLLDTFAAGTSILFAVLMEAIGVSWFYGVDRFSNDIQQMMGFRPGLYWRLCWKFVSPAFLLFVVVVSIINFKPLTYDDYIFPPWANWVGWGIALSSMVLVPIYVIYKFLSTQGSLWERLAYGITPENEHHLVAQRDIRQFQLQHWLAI
Chain of human DAT (Q01959 whole entry): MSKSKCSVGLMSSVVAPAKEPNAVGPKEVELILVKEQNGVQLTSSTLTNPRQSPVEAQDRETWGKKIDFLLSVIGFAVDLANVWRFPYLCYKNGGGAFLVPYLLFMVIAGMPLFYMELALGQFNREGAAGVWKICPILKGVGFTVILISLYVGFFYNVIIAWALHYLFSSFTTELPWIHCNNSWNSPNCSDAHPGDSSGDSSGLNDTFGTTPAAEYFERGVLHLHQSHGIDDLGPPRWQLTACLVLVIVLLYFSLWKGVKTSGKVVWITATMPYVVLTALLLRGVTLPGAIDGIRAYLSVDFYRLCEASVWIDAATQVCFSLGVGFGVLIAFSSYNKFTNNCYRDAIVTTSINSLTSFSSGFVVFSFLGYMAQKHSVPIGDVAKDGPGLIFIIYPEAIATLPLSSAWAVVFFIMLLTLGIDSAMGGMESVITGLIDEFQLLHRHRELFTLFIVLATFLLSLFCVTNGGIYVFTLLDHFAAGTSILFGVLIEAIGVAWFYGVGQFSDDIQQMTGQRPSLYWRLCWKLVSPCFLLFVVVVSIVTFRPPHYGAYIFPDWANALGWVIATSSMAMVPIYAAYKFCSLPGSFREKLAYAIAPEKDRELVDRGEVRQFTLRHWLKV
Chain of human SERT (P31645 whole entry): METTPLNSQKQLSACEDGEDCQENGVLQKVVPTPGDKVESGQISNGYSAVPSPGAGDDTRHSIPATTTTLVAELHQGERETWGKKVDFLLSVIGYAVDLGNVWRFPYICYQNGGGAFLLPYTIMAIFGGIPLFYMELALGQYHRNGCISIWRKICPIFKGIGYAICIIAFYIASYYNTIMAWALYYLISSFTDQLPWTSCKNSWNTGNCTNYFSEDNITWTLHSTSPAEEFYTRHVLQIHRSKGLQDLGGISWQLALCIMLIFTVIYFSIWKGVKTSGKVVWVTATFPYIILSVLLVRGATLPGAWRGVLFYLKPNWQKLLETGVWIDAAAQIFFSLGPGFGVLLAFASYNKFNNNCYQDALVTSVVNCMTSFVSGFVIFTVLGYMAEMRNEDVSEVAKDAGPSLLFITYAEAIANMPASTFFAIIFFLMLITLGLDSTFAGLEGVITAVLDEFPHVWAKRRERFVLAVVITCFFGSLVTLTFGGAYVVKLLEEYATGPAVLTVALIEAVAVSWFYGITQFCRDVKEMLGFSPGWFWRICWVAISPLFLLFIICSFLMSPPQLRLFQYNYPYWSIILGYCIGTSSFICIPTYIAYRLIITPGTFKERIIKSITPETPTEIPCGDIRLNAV
Chain of 5‐HT2A receptor (P28223 whole entry): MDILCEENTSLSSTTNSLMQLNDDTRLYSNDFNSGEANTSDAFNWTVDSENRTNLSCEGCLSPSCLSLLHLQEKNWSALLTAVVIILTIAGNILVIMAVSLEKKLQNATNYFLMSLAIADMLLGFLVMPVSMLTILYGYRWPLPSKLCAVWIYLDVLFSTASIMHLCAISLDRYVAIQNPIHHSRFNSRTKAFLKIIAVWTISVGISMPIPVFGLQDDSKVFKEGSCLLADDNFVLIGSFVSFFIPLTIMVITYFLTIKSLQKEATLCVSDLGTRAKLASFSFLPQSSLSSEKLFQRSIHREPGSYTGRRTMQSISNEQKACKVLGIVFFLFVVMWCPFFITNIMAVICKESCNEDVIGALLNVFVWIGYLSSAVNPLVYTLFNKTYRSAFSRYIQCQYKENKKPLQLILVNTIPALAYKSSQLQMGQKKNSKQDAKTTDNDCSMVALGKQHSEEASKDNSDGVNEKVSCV

For orientation: Ki means the dissociation constant of the complex between target and ligand, obtained from inhibition or displacement. A word on the IC50: it is the concentration needed to halve the response being measured. Regarding `CN(C)C[C@H]1CCCC[C@]1(O)c1cccc(O)c1` (relative stereo) [O‐desmethyltramadol, O‐desmethyl‐cis‐tramadol], the “Cu,brain” value in series [1] is 0.1–1.1 ^k μM. The Ki on 5‐HT2A receptor (setting [6]) is above 13 µM; on 5‐HT1A receptor (setting [7]), above 17 µM. For the same molecule, the IC50 at human NET (read-out: NET IC50 (95% CI)) is 6.1 µM; on human DAT (read-out: DAT IC50 (95% CI)), above 100 µM.
For `CC(=O)O[C@H]1C=C[C@H]2[C@H]3Cc4ccc(O)c5c4[C@@]2(CCN3C)[C@H]1O5` [6‐Acetylmorphine, 6‐acetylmorphine], the inhibitory constant (Ki) was above 13 µM at 5‐HT2A receptor and above 17 µM at 5‐HT1A receptor. In addition, the IC50 on human NET, against human SERT and at human DAT was above 100 µM throughout.
Regarding `CN(C)CCCC1(c2ccc(F)cc2)OCc2cc(C#N)ccc21` (centres unmarked) [Citalopram], in series [2], the “WHO database: cases of serotonin syndrome, only suspected cause” value was determined as 178 and the “WHO database: cases of serotonin syndrome, only suspected cause or among others” value was 777. Also, the “Medline database: number of published cases of serotonin syndrome” value (“Medline database: number” below) in series [3] came out at 57.
For `COc1ccc2c3c1O[C@H]1[C@@H](O)C=C[C@H]4[C@@H](C2)N(C)CC[C@@]341` [Codeine], in [2], the “WHO database: cases of serotonin syndrome, only suspected cause” value was found to be 0. The “WHO database: cases of serotonin syndrome, only suspected cause or among others” value in series [2] came to 32. The figures for the Ki at 5‐HT2A receptor and at 5‐HT1A receptor were above 13 µM and above 17 µM, respectively. Also, the IC50 against human NET, on human SERT and on human DAT was above 100 µM in each case. For the same molecule, the “Medline database: number” value in series [3] was found to be 0.
Consider `COc1ccc2c(c1)[C@]13CCCC[C@@H]1[C@H](C2)N(C)CC3` [Dextromethorphan], for which, in [1] (human), the “Cu,brain” value is 0–0.44 ^d μM. Further, in series [2], the “WHO database: cases of serotonin syndrome, only suspected cause” value is given as 7 and the “WHO database: cases of serotonin syndrome, only suspected cause or among others” value worked out at 86. At human NET, this molecule came in with an IC50 of 5.8 µM. At 5‐HT1A receptor, this molecule showed a Ki above 17 µM. Besides, the “Medline database: number” value in series [3] is given as 12. Moreover, the IC50 at human DAT was above 100 µM.
For `COc1ccc2c3c1O[C@H]1[C@@H](O)CC[C@H]4[C@@H](C2)N(C)CC[C@@]341` [Dihydrocodeine], in series [2], the “WHO database: cases of serotonin syndrome, only suspected cause” value stood at 0. Moreover, the “WHO database: cases of serotonin syndrome, only suspected cause or among others” value in [2] amounted to 4. Moreover, the results for the inhibition constant (Ki) on 5‐HT2A receptor and on 5‐HT1A receptor were above 13 µM and above 17 µM, respectively. The IC50 on human NET, against human SERT and against human DAT was above 100 µM each time. Moreover, the “Medline database: number” value in [3] was 0.
Regarding `CNCC[C@H](Oc1cccc2ccccc12)c1cccs1` [Duloxetine], in series [2], the “WHO database: cases of serotonin syndrome, only suspected cause” value amounted to 550 and the “WHO database: cases of serotonin syndrome, only suspected cause or among others” value worked out at 993. Further, the “Medline database: number” value in [3] is listed as 20.
For `CNCCC(Oc1ccc(C(F)(F)F)cc1)c1ccccc1` (centres unmarked) [Fluoxetine], in series [2], the “WHO database: cases of serotonin syndrome, only suspected cause” value is 181 and the “WHO database: cases of serotonin syndrome, only suspected cause or among others” value was 641. In series [3], the “Medline database: number” value came to 54.
In the case of `CC(=O)Oc1ccc2c3c1O[C@H]1[C@@H](OC(C)=O)C=C[C@H]4[C@@H](C2)N(C)CC[C@@]341` [Heroin, diacetylmorphine], the figures for the Ki at 5‐HT2A receptor and on 5‐HT1A receptor were above 13 µM and above 17 µM, respectively. Also, the IC50 against human NET, at human SERT and against human DAT was above 100 µM throughout.
Take `COc1ccc2c3c1O[C@H]1C(=O)CC[C@H]4[C@@H](C2)N(C)CC[C@]314` [Hydrocodone]: in [2], the “WHO database: cases of serotonin syndrome, only suspected cause” value was 0. Also, the “WHO database: cases of serotonin syndrome, only suspected cause or among others” value in [2] turned out to be 6. Moreover, the Ki was above 13 µM on 5‐HT2A receptor and above 17 µM at 5‐HT1A receptor. The 50% inhibitory concentration (IC50) against human NET, on human SERT and on human DAT was above 100 µM in each case. Moreover, the “Medline database: number” value in series [3] is recorded as 2.
For `CCC(=O)C(CC(C)N(C)C)(c1ccccc1)c1ccccc1` (centres unmarked) [Methadone], the values for the inhibitory constant (Ki) at 5‐HT2C receptor, at 5‐HT2A receptor and on 5‐HT1A receptor were 2.2 ± 0.3 µM, 0.61 ± 0.03 µM and above 17 µM, respectively. For the same molecule, the “WHO database: cases of serotonin syndrome, only suspected cause” value in series [2] came out at 2. Further, the “WHO database: cases of serotonin syndrome, only suspected cause or among others” value in series [2] is 93. Also, the IC50 is 4.1 µM on human NET, 0.23 µM against human SERT, 0.23 µM against human SERT (SERT inhibition in vitro IC50) and above 100 µM against human DAT. Further, the “Medline database: number” value in series [3] is 3.
In the case of `CN1CC[C@]23c4c5ccc(O)c4O[C@H]2[C@@H](O)C=C[C@H]3[C@H]1C5` [Morphine], in series [2], the “WHO database: cases of serotonin syndrome, only suspected cause” value worked out at 1 and the “WHO database: cases of serotonin syndrome, only suspected cause or among others” value is 64. Moreover, the Ki at 5‐HT2A receptor was above 13 µM. This molecule also registered a Ki at 5‐HT1A receptor above 17 µM. In addition, the “Medline database: number” value in [3] is 4.
Regarding `CN1CC[C@]23c4c5ccc(O)c4O[C@H]2C(=O)CC[C@@]3(O)[C@H]1C5` [Oxymorphone], the “WHO database: cases of serotonin syndrome, only suspected cause” value in [2] worked out at 0. Also, the “WHO database: cases of serotonin syndrome, only suspected cause or among others” value in [2] is 3. Further, the Ki was above 13 µM on 5‐HT2A receptor and above 17 µM on 5‐HT1A receptor. Also, the IC50 on human NET, on human SERT and on human DAT was above 100 µM in each case. Moreover, the “Medline database: number” value in series [3] came out at 0.
Turning to `CCOC(=O)C1(c2ccccc2)CCN(C)CC1` [Pethidine], the “Cu,brain” value in [1] (human) is recorded as 0.7–5.4 ^h μM. Also, in series [2], the “WHO database: cases of serotonin syndrome, only suspected cause” value came out at 6 and the “WHO database: cases of serotonin syndrome, only suspected cause or among others” value came to 66. For the same molecule, the “Cu,plasma” value in series [4] is 0.3 to 2.3 µM. Also, the “estimated maximal plasma concentration at maximal single dose” value in series [4] (im) is on record as “e Maximal concentration after a single dose of pethidine of 50 mg intramuscularly was 2 μM (Erstad et al., 1997). The drug label indicates threefold higher maximal single doses of 150 mg i.m. resulting in threefold higher estimated concentrations up to 6 μM”. Also, in series [5], the “Maximal plasma concentration after a single dose” value is “e Maximal concentration after a single dose of pethidine of 50 mg intramuscularly was 2 μM (Erstad et al., 1997). The drug label indicates threefold higher maximal single doses of 150 mg i.m. resulting in threefold higher estimated concentrations up to 6 μM”. For the same molecule, the “Medline database: number” value in series [3] is 5.
As for `COc1cccc(C2(O)CCCCC2CN(C)C)c1` (centres unmarked) [Tramadol], the “Cu,brain” value in [1] (human) is given as 0.1–4.6 ^j μM. The “WHO database: cases of serotonin syndrome, only suspected cause” value in series [2] came to 62. Further, the “WHO database: cases of serotonin syndrome, only suspected cause or among others” value in series [2] stood at 647. Moreover, the “Ctotal,plasma” value in series [5] was 0.1–2.5 ^a μM. Further, the values for the IC50 against human NET and on human DAT were 2.1 µM and 100 µM, respectively. The molecule also showed a Ki at 5‐HT1A receptor above 17 µM. The “Medline database: number” value in series [3] is reported as 26.
With `COc1ccc(C(CN(C)C)C2(O)CCCCC2)cc1` (centres unmarked) [Venlafaxine], on 5‐HT2C receptor, the inhibition constant (Ki) is above 15 µM. For the same molecule, in series [2], the “WHO database: cases of serotonin syndrome, only suspected cause” value was 240 and the “WHO database: cases of serotonin syndrome, only suspected cause or among others” value came out at 859. On 5‐HT1A receptor, this molecule gave an inhibition constant Ki above 17 µM. In [3], the “Medline database: number” value was found to be 75.
For the molecule `CCC(=O)C(C[C@H](C)N(C)C)(c1ccccc1)c1ccccc1` [d(S)‐methadone], the Ki at 5‐HT2C receptor (setting [8]) is 1.9 ± 0.2 µM; on 5‐HT2A receptor (setting [6]), 0.52 ± 0.11 µM; on 5‐HT1A receptor (setting [7]) it was above 17 µM. Also, the half-inhibitory concentration (IC50) at human NET (read-out: NET IC50 (95% CI)) is 69 µM; on human SERT (read-out: SERT IC50 (95% CI)), 5.6 µM; on human DAT (read-out: DAT IC50 (95% CI)), above 100 µM.
Consider `CCC(=O)C(C[C@@H](C)N(C)C)(c1ccccc1)c1ccccc1` [l(R)‐methadone], for which the results for the inhibitory constant (Ki) at 5‐HT2C receptor (setting [8]), on 5‐HT2A receptor (setting [6]) and on 5‐HT1A receptor (setting [7]) were 2.6 ± 0.3 µM, 0.72 ± 0.61 µM and above 17 µM, respectively. In addition, the figures for the IC50 on human NET (read-out: NET IC50 (95% CI)), at human SERT (read-out: SERT IC50 (95% CI)) and on human DAT (read-out: DAT IC50 (95% CI)) were 2.5 µM, 0.28 µM and above 100 µM, respectively.
